Reference: PubChem BioAssay (NCI)
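Values below derive from 48-hour exposures of cells grown in 96-well plates, with endpoints linearly interpolated between the two concentrations bracketing the appropriate inhibition level. GI50 is the concentration that inhibits growth by half. TGI: concentration producing complete growth inhibition.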

Experiments:
Assay in all cases: NCI anticancer screen, dose series, 48 h
SF-539 CNS = test system: SF-539 CNS
MALME-3M melanoma = test system: MALME-3M melanoma
EKVX NSCLC = test system: EKVX NSCLC
SR leukemia = test system: SR leukemia
NCI-H226 lung = test system: NCI-H226 lung
OVCAR-8 ovarian = test system: OVCAR-8 ovarian
UACC-257 melanoma = test system: UACC-257 melanoma
KM12 colon = test system: KM12 colon
MDA-MB-435 = test system: MDA-MB-435
CAKI-1 renal = test system: CAKI-1 renal
HCC-2998 colon = test system: HCC-2998 colon
HS 578T breast = test system: HS 578T breast
LOX IMVI melanoma = test system: LOX IMVI melanoma
HOP-62 NSCLC = test system: HOP-62 NSCLC
SK-OV-3 ovarian = test system: SK-OV-3 ovarian
OVCAR-4 ovarian = test system: OVCAR-4 ovarian
HOP-92 NSCLC = test system: HOP-92 NSCLC
NCI/ADR-RES ovarian = test system: NCI/ADR-RES ovarian
SNB-19 CNS = test system: SNB-19 CNS
SF-295 CNS = test system: SF-295 CNS
BT-549 breast = test system: BT-549 breast
ACHN renal = test system: ACHN renal
MDA-MB-231 breast = test system: MDA-MB-231 breast
SF-268 CNS = test system: SF-268 CNS
HL-60(TB) leukemia = test system: HL-60(TB) leukemia
HT29 colon = test system: HT29 colon
COLO 205 colon = test system: COLO 205 colon
SK-MEL-2 melanoma = test system: SK-MEL-2 melanoma
CCRF-CEM leukemia = test system: CCRF-CEM leukemia
RPMI-8226 leukemia = test system: RPMI-8226 leukemia
SK-MEL-5 melanoma = test system: SK-MEL-5 melanoma
HCT-116 colon = test system: HCT-116 colon
PC-3 prostate = test system: PC-3 prostate
NCI-H23 lung = test system: NCI-H23 lung
A549 NSCLC = test system: A549 NSCLC
UO-31 renal = test system: UO-31 renal
MCF7 breast = test system: MCF7 breast
OVCAR-5 ovarian = test system: OVCAR-5 ovarian
SK-MEL-28 melanoma = test system: SK-MEL-28 melanoma
HCT-15 colon = test system: HCT-15 colon
K-562 leukemia = test system: K-562 leukemia
TK-10 renal = test system: TK-10 renal
SN12C renal = test system: SN12C renal
U251 CNS = test system: U251 CNS
SW-620 colon = test system: SW-620 colon
M14 melanoma = test system: M14 melanoma
DU-145 prostate = test system: DU-145 prostate
IGROV1 ovarian = test system: IGROV1 ovarian
T-47D breast = test system: T-47D breast
786-0 renal = test system: 786-0 renal
RXF 393 renal = test system: RXF 393 renal
SNB-75 CNS = test system: SNB-75 CNS
NCI-H522 lung = test system: NCI-H522 lung
UACC-62 melanoma = test system: UACC-62 melanoma
MOLT-4 leukemia = test system: MOLT-4 leukemia
OVCAR-3 ovarian = test system: OVCAR-3 ovarian
NCI-H460 lung = test system: NCI-H460 lung
A498 renal = test system: A498 renal

## CCCCCCNC(=O)Oc1ccc(/C(=C(\C)c2ccc(Cl)cc2)c2ccc(OCCN3CCCCC3)cc2)cc1
SF-539 CNS
  GI50: 3.99 µM
  TGI: 8.55 µM
MALME-3M melanoma
  GI50: 3360 nM
  TGI: 7.7 µM
EKVX NSCLC
  GI50: 5.04 µM
  TGI: 14.4 µM
SR leukemia
  GI50: 727 nM
  TGI: 2140 nM
NCI-H226 lung
  GI50: 5.31 µM
  TGI: 11.8 µM
OVCAR-8 ovarian
  GI50: 5.53 µM
  TGI: 11.7 µM
UACC-257 melanoma
  GI50: 4.13 µM
  TGI: 9.98 µM
KM12 colon
  GI50: 3530 nM
  TGI: 10.4 µM
MDA-MB-435
  GI50: 3730 nM
  TGI: 7.98 µM
CAKI-1 renal
  GI50: 4030 nM
  TGI: 8.25 µM
HCC-2998 colon
  GI50: 4.39 µM
  TGI: 9.17 µM
HS 578T breast
  GI50: 4.22 µM
  TGI: 11.6 µM
LOX IMVI melanoma
  GI50: 4830 nM
  TGI: 9.41 µM
HOP-62 NSCLC
  GI50: 5.28 µM
  TGI: 11.9 µM
SK-OV-3 ovarian
  GI50: 5420 nM
  TGI: 13.6 µM
OVCAR-4 ovarian
  GI50: 2350 nM
  TGI: 7.73 µM
HOP-92 NSCLC
  GI50: 3550 nM
  TGI: 7.88 µM
NCI/ADR-RES ovarian
  GI50: 4150 nM
  TGI: 8.77 µM
SNB-19 CNS
  GI50: 6.37 µM
  TGI: 28.9 µM
SF-295 CNS
  GI50: 4790 nM
  TGI: 9.62 µM
BT-549 breast
  GI50: 3.61 µM
  TGI: 8.12 µM
ACHN renal
  GI50: 4870 nM
  TGI: 9.55 µM
MDA-MB-231 breast
  GI50: 5.35 µM
  TGI: 10.2 µM
SF-268 CNS
  GI50: 4.9 µM
  TGI: 14 µM
HL-60(TB) leukemia
  GI50: 1170 nM
  TGI: 4.88 µM
HT29 colon
  GI50: 1110 nM
  TGI: 4.02 µM
COLO 205 colon
  GI50: 1440 nM
  TGI: 6.44 µM
SK-MEL-2 melanoma
  GI50: 6.22 µM
  TGI: 12.8 µM
CCRF-CEM leukemia
  GI50: 3200 nM
  TGI: 33.3 µM
RPMI-8226 leukemia
  GI50: 1840 nM
  TGI: 9.68 µM
SK-MEL-5 melanoma
  GI50: 2460 nM
  TGI: 6.71 µM
HCT-116 colon
  GI50: 962 nM
  TGI: 4.78 µM
PC-3 prostate
  GI50: 2230 nM
  TGI: 14.1 µM
NCI-H23 lung
  GI50: 3890 nM
  TGI: 9.61 µM
A549 NSCLC
  GI50: 4730 nM
  TGI: 10.5 µM
UO-31 renal
  GI50: 2140 nM
  TGI: 6.57 µM
MCF7 breast
  GI50: 104 nM
  TGI: 5.38 µM
OVCAR-5 ovarian
  GI50: 5.03 µM
  TGI: 16 µM
SK-MEL-28 melanoma
  GI50: 4340 nM
  TGI: 9.34 µM
HCT-15 colon
  GI50: 1070 nM
  TGI: 4.71 µM
K-562 leukemia
  GI50: 923 nM
  TGI: 3.51 µM
TK-10 renal
  GI50: 5.79 µM
  TGI: 12.2 µM
SN12C renal
  GI50: 4220 nM
  TGI: 8.68 µM
U251 CNS
  GI50: 3520 nM
  TGI: 7.92 µM
SW-620 colon
  GI50: 1540 nM
  TGI: 5.59 µM
M14 melanoma
  GI50: 785 nM
  TGI: 3.65 µM
DU-145 prostate
  GI50: 6.26 µM
  TGI: 16.4 µM
IGROV1 ovarian
  GI50: 4.38 µM
  TGI: 10.5 µM
T-47D breast
  GI50: 722 nM
  TGI: 7.11 µM
786-0 renal
  GI50: 1930 nM
  TGI: 6.41 µM
RXF 393 renal
  GI50: 3.3 µM
  TGI: 7.55 µM
SNB-75 CNS
  GI50: 5.59 µM
  TGI: 14.3 µM
NCI-H522 lung
  GI50: 6.14 µM
  TGI: 13 µM
UACC-62 melanoma
  GI50: 4030 nM
  TGI: 8.59 µM
MOLT-4 leukemia
  GI50: 1470 nM
  TGI: 23.3 µM
OVCAR-3 ovarian
  GI50: 4390 nM
  TGI: 9.42 µM
NCI-H460 lung
  GI50: 1570 nM
  TGI: 5.46 µM

## CCc1cccc(C)c1NC(=O)c1sc2nc3c(cc2c1N)C(=O)CCC3
MALME-3M melanoma
  GI50: 685 nM
  TGI: 98.8 µM
SR leukemia
  GI50: 501 nM
  TGI: > 41100 nM
NCI-H226 lung
  GI50: 13 µM
  TGI: > 100 µM
OVCAR-8 ovarian
  GI50: 2.21 µM
  TGI: > 91.7 µM
UACC-257 melanoma
  GI50: 12.5 µM
  TGI: 76.1 µM
KM12 colon
  GI50: 455 nM
  TGI: > 100 µM
MDA-MB-435
  GI50: 159 nM
CAKI-1 renal
  GI50: 537 nM
  TGI: > 100 µM
HCC-2998 colon
  GI50: 1.75 µM
  TGI: > 100 µM
HS 578T breast
  GI50: 2.57 µM
  TGI: > 100 µM
LOX IMVI melanoma
  GI50: 742 nM
  TGI: > 100 µM
HOP-62 NSCLC
  GI50: 10.7 µM
  TGI: > 100 µM
SK-OV-3 ovarian
  GI50: 541 nM
  TGI: > 100 µM
OVCAR-4 ovarian
  GI50: 780 nM
  TGI: > 100 µM
HOP-92 NSCLC
  GI50: 644 nM
  TGI: 74.7 µM
NCI/ADR-RES ovarian
  GI50: 768 nM
  TGI: > 100 µM
SNB-19 CNS
  GI50: 0.918 µM
  TGI: > 100 µM
SF-295 CNS
  GI50: 299 nM
  TGI: > 100 µM
BT-549 breast
  GI50: 8.58 µM
  TGI: > 100 µM
ACHN renal
  GI50: 872 nM
  TGI: > 100 µM
MDA-MB-231 breast
  GI50: 1.42 µM
  TGI: > 100 µM
SF-268 CNS
  GI50: 3.06 µM
  TGI: > 100 µM
HL-60(TB) leukemia
  GI50: 327 nM
HT29 colon
  GI50: 411 nM
  TGI: 2.3 µM
COLO 205 colon
  GI50: 350 nM
  TGI: 1.51 µM
SK-MEL-2 melanoma
  GI50: 0.365 µM
  TGI: 27.3 µM
CCRF-CEM leukemia
  GI50: 407 nM
  TGI: > 35.4 µM
RPMI-8226 leukemia
  GI50: 1060 nM
  TGI: > 24 µM
SK-MEL-5 melanoma
  GI50: 353 nM
  TGI: 5.89 µM
HCT-116 colon
  GI50: 564 nM
  TGI: > 100 µM
PC-3 prostate
  GI50: 454 nM
  TGI: > 100 µM
NCI-H23 lung
  GI50: 732 nM
  TGI: > 100 µM
A549 NSCLC
  GI50: 652 nM
  TGI: > 100 µM
UO-31 renal
  GI50: 2250 nM
  TGI: 99.8 µM
MCF7 breast
  GI50: 396 nM
  TGI: > 91.4 µM
OVCAR-5 ovarian
  GI50: 2.74 µM
  TGI: > 100 µM
SK-MEL-28 melanoma
  GI50: 1090 nM
  TGI: > 100 µM
HCT-15 colon
  GI50: 495 nM
  TGI: > 100 µM
K-562 leukemia
  GI50: 422 nM
  TGI: 22.4 µM
A498 renal
  GI50: 200 nM
  TGI: 759 nM
TK-10 renal
  GI50: 0.774 µM
  TGI: 79.6 µM
SN12C renal
  GI50: 909 nM
  TGI: > 100 µM
U251 CNS
  GI50: 659 nM
  TGI: > 100 µM
SW-620 colon
  GI50: 400 nM
  TGI: > 100 µM
M14 melanoma
  GI50: 430 nM
  TGI: 25.8 µM
DU-145 prostate
  GI50: 0.514 µM
  TGI: > 100 µM
IGROV1 ovarian
  GI50: 4.75 µM
  TGI: > 100 µM
T-47D breast
  GI50: 665 nM
  TGI: > 78.5 µM
786-0 renal
  GI50: 734 nM
  TGI: > 100 µM
SNB-75 CNS
  GI50: 0.527 µM
  TGI: > 100 µM
NCI-H522 lung
  GI50: 0.234 µM
  TGI: 3.82 µM
UACC-62 melanoma
  GI50: 556 nM
  TGI: > 100 µM
MOLT-4 leukemia
  GI50: 2620 nM
  TGI: > 69.6 µM
OVCAR-3 ovarian
  GI50: 375 nM
  TGI: 2.74 µM
NCI-H460 lung
  GI50: 371 nM
  TGI: 14 µM
